Experimental data from PubChem BioAssay AID248 (DTP/NCI, 2004).
Where “and” joins values, the source holds several entries; their conditions need not be identical. Equal values may be shown once. Toxic doses and inconclusive results are not listed.

Test system: L1210 leukemia ip in BDF1 mice, survival T/C
Assay: NCI In Vivo Anticancer Drug Screen. Data for tumor model L1210 Leukemia (intraperitoneal) in B6D2F1 (BDF1) mice
Conditions: endpoint: mean survival time, higher = longer survival
How it was run: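 Each compound was tested against a transplantable tumor grown in mice. The endpoint was survival, with treated animals benchmarked against vehicle controls as a simple ratio.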

[1] = dose: 100.0 mg/kg/injection, schedule: Q01DX001 (ip), vehicle: other
[2] = dose: 200.0 mg/kg/injection, schedule: Q01DX001 (ip), vehicle: other
[3] = dose: 400.0 mg/kg/injection, schedule: Q01DX001 (ip), vehicle: other
[4] = dose: 100.0 mg/kg/injection, schedule: Q01DX009 (ip), vehicle: saline with Tween-80
[5] = dose: 100.0 mg/kg/injection, schedule: Q04DX003 (ip), vehicle: saline with Tween-80
[6] = dose: 200.0 mg/kg/injection, schedule: Q01DX009 (ip), vehicle: saline with Tween-80
[7] = dose: 200.0 mg/kg/injection, schedule: Q04DX003 (ip), vehicle: saline with Tween-80
[8] = dose: 400.0 mg/kg/injection, schedule: Q01DX009 (ip), vehicle: saline with Tween-80
[9] = dose: 400.0 mg/kg/injection, schedule: Q04DX003 (ip), vehicle: saline with Tween-80
[10] = dose: 50.0 mg/kg/injection, schedule: Q01DX001 (ip), vehicle: saline
[11] = dose: 100.0 mg/kg/injection, schedule: Q01DX001 (ip), vehicle: saline
[12] = dose: 200.0 mg/kg/injection, schedule: Q01DX001 (ip), vehicle: saline
[13] = dose: 400.0 mg/kg/injection, schedule: Q01DX001 (ip), vehicle: saline
[14] = dose: 100.0 mg/kg/injection, schedule: Q01DX001 (ip), vehicle: Klucel (hydroxypropylcellulose) (HPC)
[15] = dose: 200.0 mg/kg/injection, schedule: Q01DX001 (ip), vehicle: Klucel (hydroxypropylcellulose) (HPC)
[16] = dose: 400.0 mg/kg/injection, schedule: Q01DX001 (ip), vehicle: Klucel (hydroxypropylcellulose) (HPC)
[17] = dose: 200.0 mg/kg/injection, schedule: Q01DX001 (ip), vehicle: carboxymethylcellulose (CMC)
[18] = dose: 100.0 mg/kg/injection, schedule: Q04DX002 (ip), vehicle: Klucel (hydroxypropylcellulose) (HPC)
[19] = dose: 25.0 mg/kg/injection, schedule: Q01DX009 (ip), vehicle: saline
[20] = dose: 50.0 mg/kg/injection, schedule: Q01DX009 (ip), vehicle: saline
[21] = dose: 100.0 mg/kg/injection, schedule: Q04DX002 (ip), vehicle: saline
[22] = dose: 200.0 mg/kg/injection, schedule: Q04DX002 (ip), vehicle: saline
[23] = dose: 400.0 mg/kg/injection, schedule: Q04DX002 (ip), vehicle: saline
[24] = dose: 100.0 mg/kg/injection, schedule: Q04DX003 (ip), vehicle: Klucel (hydroxypropylcellulose) (HPC)
[25] = dose: 200.0 mg/kg/injection, schedule: Q04DX003 (ip), vehicle: Klucel (hydroxypropylcellulose) (HPC)
[26] = dose: 400.0 mg/kg/injection, schedule: Q04DX003 (ip), vehicle: Klucel (hydroxypropylcellulose) (HPC)
[27] = dose: 200.0 mg/kg/injection, schedule: Q04DX002 (ip), vehicle: Klucel (hydroxypropylcellulose) (HPC)
[28] = dose: 400.0 mg/kg/injection, schedule: Q04DX002 (ip), vehicle: Klucel (hydroxypropylcellulose) (HPC)

## O=C(NCCCl)NC1CCS(=O)(=O)C1 (stereo not given)
[1]
  T/C: 98 % of control
[2]
  T/C: 98 % of control
[3]
  T/C: 98 % of control

## Cc1ccc(Cl)cc1NC(=O)c1c(Br)c(Br)c(Br)c(Br)c1C(=O)O
[4]
  T/C: 105 % of control
[5]
  T/C: 97 % of control
[6]
  T/C: 105 % of control
[7]
  T/C: 101 % of control
[8]
  T/C: 113 % of control
[9]
  T/C: 101 % of control

## Brc1n[nH]c(Br)n1
[4]
  T/C: 93 % of control
[6]
  T/C: 93 % of control
[8]
  T/C: 91 % of control

## CC(=O)Nc1cc([N+](=O)[O-])ccc1OCc1ccccc1
[10]
  T/C: 92 % of control
[11]
  T/C: 91 % of control
[12]
  T/C: 88 % of control
[13]
  T/C: 97 % of control

## OCCCCOc1ccccc1
[11]
  T/C: 105 % of control
[12]
  T/C: 100 % of control
[13]
  T/C: 96 % of control

## COc1ccccc1CNCCCO
[10]
  T/C: 96 % of control
[11]
  T/C: 102 % of control
[12]
  T/C: 106 % of control
[13]
  T/C: 100 % of control

## O=C(N/C=C/NC(=O)c1ccccc1)c1ccccc1
[14]
  T/C: 104 % of control
[15]
  T/C: 111 % of control
[16]
  T/C: 104 % of control

## O=CC(OC(=O)c1ccccc1)C(OC(=O)c1ccccc1)C(CO)OC(=O)c1ccccc1 (stereo not given)
[14]
  T/C: 106 % of control
[15]
  T/C: 95 % of control
[16]
  T/C: 98 % of control

## CCCCCCCCCCCCCCCCCCNC(=S)Nc1ccc(S(=O)(=O)c2ccc(NC(=S)NCCCCCCCCCCCCCCCCCC)cc2)cc1
[10]
  T/C: 98 % of control
[11]
  T/C: 87 % of control
[13]
  T/C: 106 % of control

## CCOC(=O)C(Cc1ccc(N(CCCl)CCCl)cc1)NC=O (stereo not given)
dose: 5.0 mg/kg/injection, schedule: Q01DX Z (ip), vehicle: carboxymethylcellulose (CMC)
  T/C: 111 % of control
dose: 10.0 mg/kg/injection, schedule: Q01DX Z (ip), vehicle: carboxymethylcellulose (CMC)
  T/C: 123 % of control
dose: 40.0 mg/kg/injection, schedule: Q01DX Z (ip), vehicle: carboxymethylcellulose (CMC)
  T/C: 150 % of control
dose: 88.8 mg/kg/injection, schedule: Q01DX001 (ip), vehicle: carboxymethylcellulose (CMC)
  T/C: 168 % of control
dose: 133.0 mg/kg/injection, schedule: Q01DX001 (ip), vehicle: carboxymethylcellulose (CMC)
  T/C: 168 % of control
[17]
  T/C: 150 % of control and 161 % of control and 170 % of control

## Cc1ccc(NC(=O)Nc2ccccc2C(N)=O)cc1
dose: 100.0 mg/kg/injection, schedule: Q04DX003 (ip), vehicle: saline sonified
  T/C: 92 % of control
dose: 200.0 mg/kg/injection, schedule: Q04DX003 (ip), vehicle: saline sonified
  T/C: 92 % of control
dose: 400.0 mg/kg/injection, schedule: Q04DX003 (ip), vehicle: saline sonified
  T/C: 89 % of control

## O=C(C1C(c2ccccc2)C1c1ccccc1)N(CCCl)Cc1ccccc1 (stereo not given)
dose: 25.0 mg/kg/injection, schedule: Q04DX002 (ip), vehicle: Klucel (hydroxypropylcellulose) (HPC)
  T/C: 97 % of control
dose: 50.0 mg/kg/injection, schedule: Q04DX002 (ip), vehicle: Klucel (hydroxypropylcellulose) (HPC)
  T/C: 87 % of control
[18]
  T/C: 100 % of control

## O=C(NC/C=C/Br)Nc1cnc2ccccc2c1
dose: 12.5 mg/kg/injection, schedule: Q01DX009 (ip), vehicle: saline with Tween-80
  T/C: 96 % of control
dose: 25.0 mg/kg/injection, schedule: Q01DX009 (ip), vehicle: saline with Tween-80
  T/C: 101 % of control
dose: 50.0 mg/kg/injection, schedule: Q01DX009 (ip), vehicle: saline with Tween-80
  T/C: 96 % of control
[5]
  T/C: 89 % of control

## Nc1nc(N)c(-c2cccc(Cl)c2)c(CBr)n1
dose: 12.5 mg/kg/injection, schedule: Q01DX009 (ip), vehicle: saline
  T/C: 101 % of control
[19]
  T/C: 102 % of control
[20]
  T/C: 104 % of control

## CCS(=O)CCNC(=O)NS(=O)(=O)c1ccc(C)cc1 (stereo not given)
[5]
  T/C: 100 % of control
[7]
  T/C: 101 % of control
[9]
  T/C: 97 % of control

## O=C(Nc1cccc(O)c1)Oc1ccccc1
[4]
  T/C: 98 % of control
[6]
  T/C: 90 % of control
[8]
  T/C: 89 % of control

## COc1ccc(NC(=O)Oc2ccc3c(C)cc(=O)oc3c2)c(OC)c1
[4]
  T/C: 106 % of control
[5]
  T/C: 101 % of control
[6]
  T/C: 106 % of control
[7]
  T/C: 116 % of control
[8]
  T/C: 118 % of control
[9]
  T/C: 106 % of control

## O=C(O)CCc1c(O)cc(Br)c(O)c1Br
[14]
  T/C: 90 % of control
[15]
  T/C: 93 % of control
[16]
  T/C: 96 % of control

## CCCC/C(=N/NC(N)=O)C(OC)OC
[1]
  T/C: 92 % of control
[2]
  T/C: 86 % of control
[3]
  T/C: 94 % of control

## C/C(N)=N\O
[21]
  T/C: 105 % of control
[22]
  T/C: 102 % of control
[23]
  T/C: 105 % of control

## N#CCC(=O)N1CCCC1
[10]
  T/C: 95 % of control
[11]
  T/C: 104 % of control
[12]
  T/C: 98 % of control
[13]
  T/C: 95 % of control

## O=C(CCC(=O)[O][Sn]([c]1ccccc1)([c]1ccccc1)[c]1ccccc1)[O][Sn]([c]1ccccc1)([c]1ccccc1)[c]1ccccc1
dose: 1.56 mg/kg/injection, schedule: Q01DX009 (ip), vehicle: saline with Tween-80
  T/C: 93 % of control
dose: 3.12 mg/kg/injection, schedule: Q01DX009 (ip), vehicle: saline with Tween-80
  T/C: 90 % of control
dose: 6.25 mg/kg/injection, schedule: Q04DX003 (ip), vehicle: saline with Tween-80
  T/C: 95 % of control
dose: 12.5 mg/kg/injection, schedule: Q01DX001 (ip), vehicle: saline
  T/C: 104 % of control
dose: 25.0 mg/kg/injection, schedule: Q01DX001 (ip), vehicle: saline
  T/C: 91 % of control

## CCOC(=O)c1cc([N+](=O)[O-])ccc1N
[11]
  T/C: 100 % of control
[12]
  T/C: 94 % of control
[13]
  T/C: 94 % of control

## CC(=O)Nc1c(F)c(F)c(N=Nc2ccccc2)c(F)c1F
dose: 100.0 mg/kg/injection, schedule: Q01DX001 (ip), vehicle: carboxymethylcellulose (CMC)
  T/C: 100 % of control
[17]
  T/C: 102 % of control
dose: 400.0 mg/kg/injection, schedule: Q01DX001 (ip), vehicle: carboxymethylcellulose (CMC)
  T/C: 100 % of control

## C=C(C)CC(O)CCCCC (stereo not given)
[21]
  T/C: 98 % of control
[22]
  T/C: 102 % of control
[23]
  T/C: 98 % of control

## O=C(Nc1cccc(C(F)(F)F)c1)C(c1ccccc1)c1ccccc1
dose: 50.0 mg/kg/injection, schedule: Q04DX003 (ip), vehicle: Klucel (hydroxypropylcellulose) (HPC)
  T/C: 98 % of control
dose: 100.0 mg/kg/injection, schedule: Q01DX009 (ip), vehicle: Klucel (hydroxypropylcellulose) (HPC)
  T/C: 100 % of control
[24]
  T/C: 110 % of control
dose: 200.0 mg/kg/injection, schedule: Q01DX009 (ip), vehicle: Klucel (hydroxypropylcellulose) (HPC)
  T/C: 100 % of control
[25]
  T/C: 93 % of control
[26]
  T/C: 101 % of control

## CCN(CC)C(=O)Nc1cccc(N)c1
[18]
  T/C: 97 % of control
[27]
  T/C: 101 % of control
[28]
  T/C: 97 % of control

## O=C(Oc1ccccc1)Oc1ccccc1
[18]
  T/C: 96 % of control
[27]
  T/C: 96 % of control
[28]
  T/C: 96 % of control

## O=C1c2ccccc2C(=O)N1CCCn1c2ccccc2c2cnccc21
[4]
  T/C: 101 % of control
[5]
  T/C: 103 % of control
[6]
  T/C: 104 % of control
[7]
  T/C: 95 % of control
[8]
  T/C: 104 % of control
[9]
  T/C: 92 % of control

## CC(=O)OC1CCC2(C)C(CCC3C2CCC2(C)C3CC(OC(C)=O)C2C(C)C2=NCC(C)CC2)C1 (stereo not given)
[24]
  T/C: 94 % of control
[25]
  T/C: 98 % of control
[26]
  T/C: 105 % of control

## CC(C)(CCCl)NCc1ccccc1
[19]
  T/C: 101 % of control
[20]
  T/C: 104 % of control
dose: 100.0 mg/kg/injection, schedule: Q01DX009 (ip), vehicle: saline
  T/C: 88 % of control
dose: 100.0 mg/kg/injection, schedule: Q04DX003 (ip), vehicle: saline
  T/C: 99 % of control
